Experimental data from patent publication US5561140A, “Substituted alicyclic amine-containing macrocyclic immunomodulators” (Abbott Laboratories, priority 1995, dated 1996).

Test system: human mixed lymphocyte reaction (MLR)
Assay: human mixed lymphocyte reaction (MLR) assay of immunosuppressant activity
Type: cell-based
Settings: Table 1
Description: The immunosuppressant activity of the compounds of the present invention was determined using the human mixed lymphocyte reaction (MLR) assay described by Kino, T. et al. in Transplantation Proceedings XIX(5):36-39, Suppl. 6 (1987), incorporated herein by reference.

SMILES	IC50 [nM]
CC[C@@H]1/C=C(\C)C[C@H](C)C[C@H](OC)[C@H]2O[C@@](O)(C(=O)C(=O)N3CCCC[C@H]3C(=O)O[C@H](/C(C)=C/[C@@H]3CCC(N4CCC(N5CCCC5)CC4)[C@H](OC)C3)[C@H](C)[C@@H](O)CC1=O)[C@H](C)C[C@@H]2OC (stereo partly shown) [Example 44]	< 1000
CC[C@@H]1/C=C(\C)C[C@H](C)C[C@H](OC)[C@H]2O[C@@](O)(C(=O)C(=O)N3CCCC[C@H]3C(=O)O[C@H](/C(C)=C/[C@@H]3CCC(N4CCCCC4)[C@H](OC)C3)[C@H](C)[C@@H](O)CC1=O)[C@H](C)C[C@@H]2OC (stereo partly shown) [Example 14]	< 1000
CC[C@@H]1/C=C(\C)C[C@H](C)C[C@H](OC)[C@H]2O[C@@](O)(C(=O)C(=O)N3CCCC[C@H]3C(=O)O[C@H](/C(C)=C/[C@@H]3CCC(N4CCOCC4)[C@H](OC)C3)[C@H](C)[C@@H](O)CC1=O)[C@H](C)C[C@@H]2OC (stereo partly shown) [Example 18]	< 1000
CC[C@@H]1/C=C(\C)C[C@H](C)C[C@H](OC)[C@H]2O[C@@](O)(C(=O)C(=O)N3CCCC[C@H]3C(=O)O[C@H](/C(C)=C/[C@@H]3CCC(N4CCCC(CO)C4)[C@H](OC)C3)[C@H](C)[C@@H](O)CC1=O)[C@H](C)C[C@@H]2OC (stereo partly shown) [Example 106]	< 1000
CC[C@@H]1/C=C(\C)C[C@H](C)C[C@H](OC)[C@H]2O[C@@](O)(C(=O)C(=O)N3CCCC[C@H]3C(=O)O[C@H](/C(C)=C/[C@@H]3CCC(N4CCNCC4)[C@H](OC)C3)[C@H](C)[C@@H](O)CC1=O)[C@H](C)C[C@@H]2OC (stereo partly shown) [Example 22]	< 1000
CC[C@@H]1/C=C(\C)C[C@H](C)C[C@H](OC)[C@H]2O[C@@](O)(C(=O)C(=O)N3CCCC[C@H]3C(=O)O[C@H](/C(C)=C/[C@@H]3CCC(N4CCN(CC(=O)N5CCCC5)CC4)[C@H](OC)C3)[C@H](C)[C@@H](O)CC1=O)[C@H](C)C[C@@H]2OC (stereo partly shown) [Example 27]	< 1000
CC[C@@H]1/C=C(\C)C[C@H](C)C[C@H](OC)[C@H]2O[C@@](O)(C(=O)C(=O)N3CCCC[C@H]3C(=O)O[C@H](/C(C)=C/[C@@H]3CCC(N4CCN(C=O)CC4)[C@H](OC)C3)[C@H](C)[C@@H](O)CC1=O)[C@H](C)C[C@@H]2OC (stereo partly shown) [Example 15]	< 1000
CC[C@@H]1/C=C(\C)C[C@H](C)C[C@H](OC)[C@H]2O[C@@](O)(C(=O)C(=O)N3CCCC[C@H]3C(=O)O[C@H](/C(C)=C/[C@@H]3CCC(N4CCN(c5ccc(C(C)=O)cc5)CC4)[C@H](OC)C3)[C@H](C)[C@@H](O)CC1=O)[C@H](C)C[C@@H]2OC (stereo partly shown) [Example 39]	< 1000
CC[C@@H]1/C=C(\C)C[C@H](C)C[C@H](OC)[C@H]2O[C@@](O)(C(=O)C(=O)N3CCCC[C@H]3C(=O)O[C@H](/C(C)=C/[C@@H]3CCC(N4CCN(C5CCCC5)CC4)[C@H](OC)C3)[C@H](C)[C@@H](O)CC1=O)[C@H](C)C[C@@H]2OC (stereo partly shown) [Example 31]	< 1000
CC[C@@H]1/C=C(\C)C[C@H](C)C[C@H](OC)[C@H]2O[C@@](O)(C(=O)C(=O)N3CCCC[C@H]3C(=O)O[C@H](/C(C)=C/[C@@H]3CCC(N4CCN(CC(=O)N5CCOCC5)CC4)[C@H](OC)C3)[C@H](C)[C@@H](O)CC1=O)[C@H](C)C[C@@H]2OC (stereo partly shown) [Example 28]	< 1000
CCC1C=C(C)CC(C)CC(OC)C2OC(O)(C(=O)C(=O)N3CCCCC3C(=O)OC(C(C)=CC3CCC(N4CCN(Cc5ccc6ccccc6c5)CC4)C(OC)C3)C(C)C(O)CC1=O)C(C)CC2OC (stereo not shown) [Example 13]	< 1000
CC[C@@H]1/C=C(\C)C[C@H](C)C[C@H](OC)[C@H]2O[C@@](O)(C(=O)C(=O)N3CCCC[C@H]3C(=O)O[C@H](/C(C)=C/[C@@H]3CCC(N4CCN(CC(=O)NC(C)C)CC4)[C@H](OC)C3)[C@H](C)[C@@H](O)CC1=O)[C@H](C)C[C@@H]2OC (stereo partly shown) [Example 62]	< 1000
CCC1C=C(C)CC(C)CC(OC)C2OC(O)(C(=O)C(=O)N3CCCCC3C(=O)OC(C(C)=CC3CCC(N4CCN(Cc5ccc([N+](=O)[O-])cc5)CC4)C(OC)C3)C(C)C(O)CC1=O)C(C)CC2OC (stereo not shown) [Example 12]	< 1000
CC[C@@H]1/C=C(\C)C[C@H](C)C[C@H](OC)[C@H]2O[C@@](O)(C(=O)C(=O)N3CCCC[C@H]3C(=O)O[C@H](/C(C)=C/[C@@H]3CCC(N4CCN(C(C)=O)CC4)[C@H](OC)C3)[C@H](C)[C@@H](O)CC1=O)[C@H](C)C[C@@H]2OC (stereo partly shown) [Example 61]	< 1000
CC[C@@H]1/C=C(\C)C[C@H](C)C[C@H](OC)[C@H]2O[C@@](O)(C(=O)C(=O)N3CCCC[C@H]3C(=O)O[C@H](/C(C)=C/[C@@H]3CCC(N4CCN(C)CC4)[C@H](OC)C3)[C@H](C)[C@@H](O)CC1=O)[C@H](C)C[C@@H]2OC (stereo partly shown) [Example 5]	< 1000
CC[C@@H]1/C=C(\C)C[C@H](C)C[C@H](OC)[C@H]2O[C@@](O)(C(=O)C(=O)N3CCCC[C@H]3C(=O)O[C@H](/C(C)=C/[C@@H]3CCC(N4CCN(CCOCCO)CC4)[C@H](OC)C3)[C@H](C)[C@@H](O)CC1=O)[C@H](C)C[C@@H]2OC (stereo partly shown) [Example 19]	< 1000
CC[C@@H]1/C=C(\C)C[C@H](C)C[C@H](OC)[C@H]2O[C@@](O)(C(=O)C(=O)N3CCCC[C@H]3C(=O)O[C@H](/C(C)=C/[C@@H]3CCC(N4CCN(Cc5ccccc5)CC4)[C@H](OC)C3)[C@H](C)[C@@H](O)CC1=O)[C@H](C)C[C@@H]2OC (stereo partly shown) [Example 7]	< 1000
CCC1C=C(C)CC(C)CC(OC)C2OC(O)(C(=O)C(=O)N3CCCCC3C(=O)OC(C(C)=CC3CCC(N4CCN(Cc5ccc6c(c5)OCO6)CC4)C(OC)C3)C(C)C(O)CC1=O)C(C)CC2OC (stereo not shown) [Example 38]	< 1000
CC[C@@H]1/C=C(\C)C[C@H](C)C[C@H](OC)[C@H]2O[C@@](O)(C(=O)C(=O)N3CCCC[C@H]3C(=O)O[C@H](/C(C)=C/[C@@H]3CCC(N4CCN(c5ccccn5)CC4)[C@H](OC)C3)[C@H](C)[C@@H](O)CC1=O)[C@H](C)C[C@@H]2OC (stereo partly shown) [Example 20]	< 1000
CC[C@@H]1/C=C(\C)C[C@H](C)C[C@H](OC)[C@H]2O[C@@](O)(C(=O)C(=O)N3CCCC[C@H]3C(=O)O[C@H](/C(C)=C/[C@@H]3CCC(N4CCC5(CC4)OCCO5)[C@H](OC)C3)[C@H](C)[C@@H](O)CC1=O)[C@H](C)C[C@@H]2OC (stereo partly shown) [Example 16]	< 1000
CC[C@@H]1/C=C(\C)C[C@H](C)C[C@H](OC)[C@H]2O[C@@](O)(C(=O)C(=O)N3CCCC[C@H]3C(=O)O[C@H](/C(C)=C/[C@@H]3CCC(N4CCC(O)CC4)[C@H](OC)C3)[C@H](C)[C@@H](O)CC1=O)[C@H](C)C[C@@H]2OC (stereo partly shown) [Example 67]	< 1000

The remaining lines, values ahead:

IC50 [nM]	SMILES
< 1000	CC[C@@H]1/C=C(\C)C[C@H](C)C[C@H](OC)[C@H]2O[C@@](O)(C(=O)C(=O)N3CCCC[C@H]3C(=O)O[C@H](/C(C)=C/[C@@H]3CCC(N4CCN(CCO)CC4)[C@H](OC)C3)[C@H](C)[C@@H](O)CC1=O)[C@H](C)C[C@@H]2OC (stereo partly shown) [Example 17]
< 1000	CC[C@@H]1/C=C(\C)C[C@H](C)C[C@H](OC)[C@H]2O[C@@](O)(C(=O)C(=O)N3CCCC[C@H]3C(=O)O[C@H](/C(C)=C/[C@@H]3CCC(N4CCN(C(=O)OC(C)(C)C)CC4)[C@H](OC)C3)[C@H](C)[C@@H](O)CC1=O)[C@H](C)C[C@@H]2OC (stereo partly shown) [Example 11]
< 1000	CC[C@@H]1/C=C(\C)C[C@H](C)C[C@H](OC)[C@H]2O[C@@](O)(C(=O)C(=O)N3CCCC[C@H]3C(=O)O[C@H](/C(C)=C/[C@@H]3CCC(N4CCN(c5ccccc5)CC4)[C@H](OC)C3)[C@H](C)[C@@H](O)CC1=O)[C@H](C)C[C@@H]2OC (stereo partly shown) [Example 9]
< 1000	CC[C@@H]1/C=C(\C)C[C@H](C)C[C@H](OC)[C@H]2O[C@@](O)(C(=O)C(=O)N3CCCC[C@H]3C(=O)O[C@H](/C(C)=C/[C@@H]3CCC(N4CCCCC4CO)[C@H](OC)C3)[C@H](C)[C@@H](O)CC1=O)[C@H](C)C[C@@H]2OC (stereo partly shown) [Example 105]
< 1000	CCOC(=O)N1CCN(C2CC[C@@H](/C=C(\C)[C@H]3OC(=O)[C@@H]4CCCCN4C(=O)C(=O)[C@]4(O)O[C@H]([C@@H](OC)C[C@@H](C)C/C(C)=C/[C@@H](CC)C(=O)C[C@H](O)[C@H]3C)[C@@H](OC)C[C@H]4C)C[C@H]2OC)CC1 (stereo partly shown) [Example 58]
< 1000	CC[C@@H]1/C=C(\C)C[C@H](C)C[C@H](OC)[C@H]2O[C@@](O)(C(=O)C(=O)N3CCCC[C@H]3C(=O)O[C@H](/C(C)=C/[C@@H]3CCC(N4CCC[C@H]4CO)[C@H](OC)C3)[C@H](C)[C@@H](O)CC1=O)[C@H](C)C[C@@H]2OC (single isomer, unassigned) [Example 109]
< 1000	CC[C@@H]1/C=C(\C)C[C@H](C)C[C@H](OC)[C@H]2O[C@@](O)(C(=O)C(=O)N3CCCC[C@H]3C(=O)O[C@H](/C(C)=C/[C@@H]3CCC(N4CCCC(O)C4)[C@H](OC)C3)[C@H](C)[C@@H](O)CC1=O)[C@H](C)C[C@@H]2OC (stereo partly shown) [Example 108]
< 1000	CC[C@@H]1/C=C(\C)C[C@H](C)C[C@H](OC)[C@H]2O[C@@](O)(C(=O)C(=O)N3CCCC[C@H]3C(=O)O[C@H](/C(C)=C/[C@@H]3CCC(N4CCN(c5ncccn5)CC4)[C@H](OC)C3)[C@H](C)[C@@H](O)CC1=O)[C@H](C)C[C@@H]2OC (stereo partly shown) [Example 21]
< 1000	CC[C@@H]1/C=C(\C)C[C@H](C)C[C@H](OC)[C@H]2O[C@@](O)(C(=O)C(=O)N3CCCC[C@H]3C(=O)O[C@H](/C(C)=C/[C@@H]3CCC(N4CCC[C@@H]4CO)[C@H](OC)C3)[C@H](C)[C@@H](O)CC1=O)[C@H](C)C[C@@H]2OC (single isomer, unassigned) [Example 76]
< 1000	CC[C@@H]1/C=C(\C)C[C@H](C)C[C@H](OC)[C@H]2O[C@@](O)(C(=O)C(=O)N3CCCC[C@H]3C(=O)O[C@H](/C(C)=C/[C@@H]3CCC(N4CCCCC4CCO)[C@H](OC)C3)[C@H](C)[C@@H](O)CC1=O)[C@H](C)C[C@@H]2OC (stereo partly shown) [Example 107]
